The values below come from patent US20260250290A1 (BRISTOL-MYERS SQUIBB COMPANY, priority 2023, published 2026).

This experiment concerns the target T1, full length SGK1 (Homo sapiens, UniProt O00141).
T1 construct: 125 μM full length SGK1 (Life Technologies Part #PR7358A); purchased Life Technologies PR7358A
T1 sequence (O00141 1-431): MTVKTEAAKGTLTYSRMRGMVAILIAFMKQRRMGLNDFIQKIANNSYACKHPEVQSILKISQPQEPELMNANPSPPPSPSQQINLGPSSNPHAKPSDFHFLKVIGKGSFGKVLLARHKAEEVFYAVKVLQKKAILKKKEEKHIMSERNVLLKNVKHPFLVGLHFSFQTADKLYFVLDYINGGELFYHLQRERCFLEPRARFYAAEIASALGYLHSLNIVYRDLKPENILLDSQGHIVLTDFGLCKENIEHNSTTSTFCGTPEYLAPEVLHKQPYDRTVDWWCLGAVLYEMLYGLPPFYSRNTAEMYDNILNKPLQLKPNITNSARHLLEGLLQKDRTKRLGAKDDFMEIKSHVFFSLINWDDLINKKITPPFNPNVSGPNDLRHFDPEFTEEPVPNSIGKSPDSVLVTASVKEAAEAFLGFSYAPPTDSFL
The experiment is described as follows: SGK1 inhibition Assay A (Caliper LabChip electrophoretic separation of fluorescent peptide substrate and phosphorylated product). In kind it is biochemical. The conditions noted are these: Assay A; 20 μM ATP, 40 min incubation; read-out: SGK1 IC50.

For orientation: IC50 means the concentration that gives 50% inhibition.

`CC(=O)N1CC=C(c2cc(N3CCC[C@@H](NC(=O)c4sc(Cl)cc4OC4CCNCC4F)C3)c3c(N)ncnn23)C1` (stereo partly drawn) [Example 603, N-((R)-1-(7-(1-acetyl-2,5-dihydro-1H-pyrrol-3-y1)-4-aminopyrrolo[2,1-f][1,2,4]triazin-5-yl)piperidin-3-y1)-5-chloro-3-((3-fluoropiperidin-4-yl)oxy)thiophene~2-carboxamide]: the IC50 was determined as 7 nM.
As for `CC(=O)N1CC=C(c2cc(N3CCC[C@@H](NC(=O)c4sc(Cl)cc4OC4CCN(C)CC4F)C3)c3c(N)ncnn23)C1` (stereo partly drawn) [Example 604, N-((R)-1-(7-(1-acetyl-2,5-dihydro-1H-pyrrol-3-y1)-4-aminopyrrolo[2,1-f][1,2,4]triazin-5-yl)piperidin-3-y1)-5-chloro-3-((3-fluoro-1-methylpiperidin-4-yl)oxy)thiophene-2-carboxamide], the figure is 5 nM; as for `CC(=O)N1CC=C(c2cc(N3CCC[C@@H](NC(=O)c4sc(Cl)cc4OC4CCN(C)CC4F)C3)c3c(N)ncnn23)C1` (stereo partly drawn) [Example 605, N-((R)-1-(7-(1-acetyl-2,5-dihydro-1H-pyrrol-3-yl)-4-aminopyrrolo[2,1-f][1,2,4]triazin-5-yl)piperidin-3-y1)-5-chloro-3-((3-fluoro-1-methylpiperidin-4-yl)oxy)thiophene-2-carboxamide], 3 nM.
Under `CC(=O)N1CC=C(c2cc(N3CCC[C@@H](NC(=O)c4sc(Cl)cc4OC4CC5CC4CN5)C3)c3c(N)ncnn23)C1` (stereo partly drawn) [Example 606, 3-((2-azabicyclo[2.2.1]heptan-5-yl)oxy)-N-((R)-1-(7-(1-acetyl-2,5-dihydro-1H-pyrrol-3-y1)-4-aminopyrrolo[2,1-f][1,2,4]triazin-5~yl)piperidin-3-y1)-5-chlorothiophene-2-carboxamide] stands 9 nM.
With `CC(=O)N1CC=C(c2cc(N3CCC[C@@H](NC(=O)c4sc(Cl)cc4O[C@@H]4C[C@H]5CC[C@@H](C4)N5C)C3)c3c(N)ncnn23)C1` [Example 612, N—((R)-1-(7-(1-acetyl-2,5-dihydro-1H-pyrrol-3-yl)-4-aminopyrrolo[2,1-f][1,2,4]triazin-5-yl)piperidin-3-yl)-5-chloro-3-((8-methyl-8-azabicyclo[3.2.1]octan-3-yl)oxy)thiophene-2-carboxamide], the IC50 is 0.6 nM.
Under `COC(=O)N1CC=C(c2cc(N3CCC[C@@H](NC(=O)c4sc(Cl)cc4O[C@@H]4C[C@H]5CC[C@@H](C4)N5C)C3)c3c(N)ncnn23)C1` [Example 613, methyl 3-(4-amino-5-((R)-3-(5-chloro-3-(((1R,3s,5S)-8-methyl-8-azabicyclo[3.2.1]octan-3-yl)oxy)thiophene-2-carboxamido)piperidin-1-yl)pyrrolo[2,1-f][1,2,4]triazin-7-yl)-2,5-dihydro-1H-pyrrole-1-carboxylate] stands 3 nM; under `CN1[C@@H]2CC[C@H]1C[C@H](Oc1cc(Cl)sc1C(=O)N[C@@H]1CCCN(c3cc(-c4cncnc4)n4ncnc(N)c34)C1)C2` [Example 614, N—((R)-1-(4-amino-7-(pyrimidin-5-yl)pyrrolo[2,1-f][1,2,4]triazin-5-yl)piperidin-3-yl)-5-chloro-3-((8-methyl-8-azabicyclo[3.2.1]octan-3-yl)oxy)thiophene-2-carboxamide], 3 nM; under `CC(=O)N1CC=C(c2cc(N3CCC[C@@H](NC(=O)c4sc(Cl)cc4OC4CCN(C5CC5)CC4)C3)c3c(N)ncnn23)C1` [Example 615, (R)—N-(1-(7-(1-acetyl-2,5-dihydro-1H-pyrrol-3-yl)-4-aminopyrrolo[2,1-f][1,2,4]triazin-5-yl)piperidin-3-yl)-5-chloro-3-((1-cyclopropylpiperidin-4-yl)oxy)thiophene-2-carboxamide], 50 nM.
For the compound `COC(=O)N1CC=C(c2cc(N3CCC[C@@H](NC(=O)c4sc(Cl)cc4OC4CCN(C5CC5)CC4)C3)c3c(N)ncnn23)C1` [Example 616, methyl (R)-3-(4-amino-5-(3-(5-chloro-3-((1-cyclopropylpiperidin-4-yl)oxy)thiophene-2-carboxamido)piperidin-1-yl)pyrrolo[2,1-f][1,2,4]triazin-7-yl)-2,5-dihydro-1H-pyrrole-1-carboxylate], the IC50 was 6 nM.
Under `Nc1ncnn2c(-c3cncnc3)cc(N3CCC[C@@H](NC(=O)c4sc(Cl)cc4OC4CCN(C5CC5)CC4)C3)c12` [Example 617, (R)-N-(1-(4-amino-7-(pyrimidin-5-y1)pyrrolo[2,1-f][1,2,4]triazin-5-yl)piperidin-3-y1)-5-chloro-3-((1-cyclopropylpiperidin-4-yl)oxy)thiophene-2-carboxamide] stands 24 nM.
`CC(=O)N1CC=C(c2cc(N3CCC[C@@H](NC(=O)c4sc(Cl)cc4OC4CCN(CC(C)(C)O)CC4)C3)c3c(N)ncnn23)C1` [Example 618, (R)—N-(1-(7-(1-acetyl-2,5-dihydro-1H-pyrrol-3-yl)-4-aminopyrrolo[2,1-f][1,2,4]triazin-5-yl)piperidin-3-yl)-5-chloro-3-((1-(2-hydroxy-2-methylpropyl)piperidin-4-yl)oxy)thiophene-2-carboxamide]: the IC50 amounted to 9 nM.
Turning to `COC(=O)N1CC=C(c2cc(N3CCC[C@@H](NC(=O)c4sc(Cl)cc4OC4CCN(CC(C)(C)O)CC4)C3)c3c(N)ncnn23)C1` [Example 619, Methyl (R)-3-(4-amino-5-(3-(5-chloro-3-((1-(2-hydroxy-2-methylpropyl)piperidin-4-yl)oxy)thiophene-2-carboxamido)piperidin-1-yl)pyrrolo[2,1-f][1,2,4]triazin-7-yl)-2,5-dihydro-1H-pyrrole-1-carboxylate], the half-maximal inhibitory concentration (IC50) is 11 nM.
On to `COC(=O)N1CC=C(c2cc(N3CCC[C@@H](NC(=O)c4sc(Cl)cc4OC4CCNC(C)C4)C3)c3c(N)ncnn23)C1` (stereo partly drawn) [Example 624, Methyl 3-(4-amino-5-((3R)-3-(5-chloro-3-((2-methylpiperidin-4-yl)oxy)thiophene-2-carboxamido)piperidin-1-yl)pyrrolo[2,1-f][1,2,4]triazin-7-y1)-2,5-dihydro-1H-pyrrole-1-carboxylate], for which the IC50 turned out to be 7 nM.
Turning to `CC(C)N1CC2(CC(Oc3cc(Cl)sc3C(=O)N[C@@H]3CCCN(c4cc(-c5ccc(C#N)c(F)c5)n5ncnc(N)c45)C3)C2)C1` [Example 631, (R)—N-(1-(4-amino-7-(4-cyano-3-fluorophenyl)pyrrolo[2,1-f][1,2,4]triazin-5-yl)piperidin-3-yl)-5-chloro-3-((2-isopropyl-2-azaspiro[3.3]heptan-6-yl)oxy)thiophene-2-carboxamide], the IC50 is 3 nM.
As to `Nc1ncnn2c(-c3ccnc(C(F)F)c3)cc(N3CCC[C@@H](NC(=O)c4sc(Cl)cc4OC4CNC4)C3)c12` [Example 632, (R)-N-(1-(4-amino-7-(2-(difluoromethyl)pyridin-4-yl)pyrrolo[2,1-f][1,2,4]triazin-5-y1)piperidin-3-y1)-3-(azetidin-3-yloxy)-5-chlorothiophene-2-carboxamide], the IC50 worked out at 8 nM.
`CC(=O)N1CC=C(c2cc(N3CCC[C@@H](NC(=O)c4sc(Cl)cc4OC4CNC4)C3)c3c(N)ncnn23)C1` [Example 633, (R)-N-(1-(7-(1-acetyl-2,5-dihydro-1H-pyrrol-3-yl)-4-aminopyrrolo[2,1-f][1,2,4]triazin-5-yl)piperidin-3-yl)-3-(azetidin-3-yloxy)-5-chlorothiophene-2-carboxamide]: the IC50 stood at 6 nM.
